Key:
Format in all cases: functional
[1] = molecular target: T1, Tumor necrosis factor (Homo sapiens, UniProt P01375); test: Inhibition of TNF-alpha production from human monocytes upon stimulation with bacterial lipopolysaccharide (LPS) at a concentration of 1 uM; conditions: values are per cent of control
[2] = molecular target: T1, Tumor necrosis factor; test: Inhibition of TNF-alpha production from human monocytes upon stimulation with bacterial lipopolysaccharide (LPS) at a concentration of 100 nM; conditions: values are per cent of control
[3] = molecular target: T1, Tumor necrosis factor; test: Inhibition of TNF-alpha production from human monocytes upon stimulation with bacterial lipopolysaccharide (LPS) at a concentration of 215 nM; conditions: values are per cent of control
[4] = molecular target: T1, Tumor necrosis factor; test: Inhibition of TNF-alpha production from human monocytes upon stimulation with bacterial lipopolysaccharide (LPS) at a concentration of 464 nM; conditions: values are per cent of control
[5] = molecular target: T1, Tumor necrosis factor; test: Inhibition of TNF-alpha production from human monocytes upon stimulation with bacterial lipopolysaccharide (LPS) at a concentration of 200 uM
[6] = molecular target: T1, Tumor necrosis factor; test: Inhibition of TNF-alpha production from human monocytes upon stimulation with bacterial lipopolysaccharide (LPS) at a concentration of 100 uM,
[7] = molecular target: T1, Tumor necrosis factor; test: Inhibition of TNF-alpha production from human monocytes upon stimulation with bacterial lipopolysaccharide (LPS) at a concentration of 215 uM,
[8] = molecular target: T1, Tumor necrosis factor; test: Inhibition of TNF-alpha production from human monocytes upon stimulation with bacterial lipopolysaccharide (LPS) at a concentration of 464 uM
[9] = molecular target: T1, Tumor necrosis factor; test: Inhibitory activity against TNF-alpha production
[10] = molecular target: T1, Tumor necrosis factor; test: Inhibition of TNF-alpha production from human monocytes upon stimulation with bacterial lipopolysaccharide (LPS) at a concentration of 100 nM,
[11] = molecular target: T1, Tumor necrosis factor; test: Inhibition of TNF-alpha production from human monocytes upon stimulation with bacterial lipopolysaccharide (LPS) at a concentration of 215 nM,
[12] = molecular target: T1, Tumor necrosis factor; test: Inhibition of TNF-alpha production from human monocytes upon stimulation with bacterial lipopolysaccharide (LPS) at a concentration of 464 nM,

T1 sequence (P01375 whole entry): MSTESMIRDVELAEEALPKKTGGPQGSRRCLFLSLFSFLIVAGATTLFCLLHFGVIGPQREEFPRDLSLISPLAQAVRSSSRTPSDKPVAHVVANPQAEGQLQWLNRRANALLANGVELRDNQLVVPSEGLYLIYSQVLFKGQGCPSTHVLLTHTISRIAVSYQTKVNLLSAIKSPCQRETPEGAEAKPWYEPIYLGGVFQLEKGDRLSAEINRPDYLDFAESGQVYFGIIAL

SMILES	response, % of control [1] [%]	response, % of control [2] [%]	response, % of control [3] [%]	response, % of control [4] [%]	also measured
O=C1CCC(N2C(=O)c3c(Br)c(Br)c(Br)c(Br)c3C2=O)C(=O)N1 (racemic)	53	70	60	62	–
CC(C)c1cccc(C(C)C)c1N1C(=O)c2c(F)c(F)c(F)c(F)c2C1=O	5	40	10	2	–
CC(C)(C)c1cccc(C(C)(C)C)c1N1C(=O)c2c(F)c(F)c(F)c(F)c2C1=O	-2	40	30	15	–
O=C1c2c(F)c(F)c(F)c(F)c2C(=O)N1c1ccccc1	65	65	65	70	–
CC(C)c1cccc(C(C)C)c1N1C(=O)c2c(Br)c(Br)c(Br)c(Br)c2C1=O	62	80	70	53	–
O=C1CCC(N2C(=O)c3ccccc3C2=O)C(=O)N1 (stereo unspecified)	–	–	–	–	inhibition [5]: 64%
CC(C)c1cccc(C(C)C)c1N1C(=O)c2c(Cl)c(Cl)c(Cl)c(Cl)c2C1=O	70	75	80	70	–
COC(=O)CC(c1ccc(OC)c(OC)c1)N1C(=O)c2c(F)c(F)c(F)c(F)c2C1=O (racemic)	-5	–	–	–	inhibition [6]: 55%; inhibition [7]: 30%; inhibition [8]: 10%
O=C1CCC(N2C(=O)c3c(Cl)c(Cl)c(Cl)c(Cl)c3C2=O)C(=O)N1 (racemic)	75	80	90	80	–
O=C1CCC(N2C(=O)c3c(F)c(F)c(F)c(F)c3C2=O)C(=O)N1 (racemic)	4	85	70	40	IC50 [9]: 400 nM
CCc1cccc(CC)c1N1C(=O)c2c(F)c(F)c(F)c(F)c2C1=O	-1	–	–	–	inhibition [10]: 43%; inhibition [11]: 20%; inhibition [12]: 2%
Cc1cccc(C)c1N1C(=O)c2c(F)c(F)c(F)c(F)c2C1=O	3	62	50	30	–

Reference: ChEMBL document CHEMBL1129257, “Potent inhibition of tumor necrosis factor-alpha production by tetrafluorothalidomide and tetrafluorophthalimides” (J Med Chem, 1996)
